Laboratory results from patent US20160039825A1 (BIOGEN MA INC., priority 2013, published 2016).

Target: T1, Human ATX protein (Homo sapiens, UniProt Q13822)
T1 construct: made in house
Test: Autotaxin (ATX) assay, FRET with FS-3 substrate
Assay type: biochemical
Settings: upper bound bins (no greater than 100, 250 or 500 nM); FS-3 2 μM, ATX 1.0 μg/mL
Excerpt: ATX (Autotaxin) is a 125 KDa glycoprotein with lysophospholipase D (LPLD) activity that generates the bioactive lipid lysophosphatidic acid (LPA) from lysophosphatidylcholine (LPC). The ATX biochemical assay utilizes a FRET (fluorescence resonance energy transfer) technology platform. The fluorescence signal of FRET substrate FS-3 is quenched due to intra-molecular FRET of a fluorophore to a non-fluorescing quencher (Ferguson, C. G., et al., Org Lett. 2006 May 11; 8(10): 2023-2026, which is incorporated by reference in its entirety). ATX catalyzes the hydrolysis of the substrate which separates the dabsyl quencher from the fluorescein reporter, which becomes fluorescent. The reaction is monitored by a SpectraMax M5 (Molecular Devices, Sunnyvale, Calif.) with at excitation wavelength 485 nm and emission wavelength […].
Fatty acid free-BSA (Sigma A8806): 10 mg/mL in H2O, stored at 4° C.
2×ATX assay buffer: 100 mM Tris, 280 mM NaCl, 10 mM KCl, 2 mM CaCl2, 2 mM MgCl2, pH 7.4.
Human ATX protein: expressed and purified in house. Stored at −80° C.
Substrate FS-3 (Echelon, L-2000): 100 μg in 77.74 μL H2O (1 mM stock), stored at −20° C.
384-well flat bottom plates—Corning #3575.
Compound dilution—All compounds were provided at 10 mM in 100% DMSO. In the first well, 2 μL of 10 mM compound was added to 78 μL of DMSO (1:40 dilution). In subsequent wells 3-fold dilution (total 10 dilutions) were performed.
1×ATX assay buffer was made up with a final concentration of 1 mg/mL fatty acid free-BSA using 2×ATX assay buffer, 10 mg/ml fatty acid free-BSA and ddH2O.
ATX protein was diluted with 1×ATX assay buffer to a concentration of 1.32 μg/mL (1.32×). 38 μL was added per well to the assay plate. The final concentration of ATX in the reaction as 1.0 μg/mL.
2 μL per well of compounds was transferred to provide the desired concentration. The plate was centrifuged, then incubated at room temperature for 30 minutes on the shaker.
FS-3 was diluted with 1×ATX assay buffer to a concentration of FS-3 of 10 μM (5×). Then, 10 μL was added per well to the assay plate. The final concentration of FS-3 in the reaction was 2 μM. The plate was centrifuged. The plate was kept shaking at room temperature for 2 hours. Because FS-3 substrate is light sensitive, plates were kept covered and protected from light.
Fluorescence was measured using SpectraMax M5 (excitation at 485 nm/emission at 538 nm, top read).

| IC50 [nM] | SMILES |
| --- | --- |
| ≤ 100 | O=C(O)c1cc2n(n1)CCCN(C(=O)OCc1cc(F)cc(C(F)(F)F)c1)C2 [Example 64, 5-(((3-Fluoro-5-(trifluoromethyl)benzyl)oxy)carbonyl)-5,6,7,8-tetrahydro-4H-pyrazolo[1,5-a][1,4]diazepine-2-carboxylic acid] |
| ≤ 100 | O=C(O)c1cc2n(n1)CCCN(C(=O)OCc1cc(Cl)cc(C(F)(F)F)c1)C2 [Example 65, 5-(((3-Chloro-5-(trifluoromethyl)benzyl)oxy)carbonyl)-5,6,7,8-tetrahydro-4H-pyrazolo[1,5-a][1,4]diazepine-2-carboxylic acid] |
| ≤ 500 | O=C(O)c1cc2n(n1)CCCN(C(=O)OCc1cccc(C(F)(F)F)c1)C2 [Example 67, 5-(((3-(Trifluoromethyl)benzyl)oxy)carbonyl)-5,6,7,8-tetrahydro-4H-pyrazolo[1,5-a][1,4]diazepine-2-carboxylic acid] |
| ≤ 500 | O=C(O)c1cc2n(n1)CCCN(C(=O)OCc1cc(F)cc(Cl)c1)C2 [Example 68, 5-(((3-Chloro-5-fluorobenzyl)oxy)carbonyl)-5,6,7,8-tetrahydro-4H-pyrazolo[1,5-a][1,4]diazepine-2-carboxylic acid] |
| ≤ 500 | O=C(O)c1cc2n(n1)CCCN(C(=O)OCc1cc(F)cc(Br)c1)C2 [Example 75, 5-(((3-Bromo-5-fluorobenzyl)oxy)carbonyl)-5,6,7,8-tetrahydro-4H-pyrazolo[1,5-a][1,4]diazepine-2-carb oxylic acid] |
| ≤ 100 | O=C(O)c1cc2n(n1)CCCN(C(=O)CCc1cc(C(F)(F)F)cc(C(F)(F)F)c1)C2 [Example 82, 5-(3-(3,5-bis(Trifluoromethyl)phenyl)propanoyl)-5,6,7,8-tetrahydro-4H-pyrazolo[1,5-a][1,4]diazepine-2-carboxylic acid] |
| ≤ 100 | O=C(O)c1cc2n(n1)CCCN(C(=O)CCc1cc(Cl)cc(Cl)c1)C2 [Example 83, 5-(3-(3,5-Dichlorophenyl)propanoyl)-5,6,7,8-tetrahydro-4H-pyrazolo[1,5-a][1,4]diazepine-2-carboxylic acid] |
| ≤ 100 | O=C(N[C@H]1CC[C@@H](C(=O)O)CC1)c1cc2n(n1)CCCN(C(=O)OCc1cc(Cl)cc(Cl)c1)C2 [Example 85, (cis)-4-(5-(((3,5-Dichlorobenzyl)oxy)carbonyl)-5,6,7,8-tetrahydro-4H-pyrazolo[1,5-a][1,4]diazepine-2-carboxamido)cyclohexanecarboxylic acid] |
| ≤ 250 | O=C(N[C@H]1CC[C@H](C(=O)O)CC1)c1cc2n(n1)CCCN(C(=O)OCc1cc(Cl)cc(Cl)c1)C2 [Example 86, (trans)-4-(5-(((3,5-Dichlorobenzyl)oxy)carbonyl)-5,6,7,8-tetrahydro-4H-pyrazolo[1,5-a][1,4]diazepine-2-carboxamido)cyclohexanecarboxylic acid] |
| ≤ 100 | O=C(O)C1CCN(C(=O)c2cc3n(n2)CCCN(C(=O)OCc2cc(Cl)cc(Cl)c2)C3)CC1 [Example 87, 1-(5-(((3,5-Dichlorobenzyl)oxy)carbonyl)-5,6,7,8-tetrahydro-4H-pyrazolo[1,5-a][1,4]diazepine-2-carbonyl)piperidine-4-carboxylic acid] |
| ≤ 250 | O=C(O)C1CCCN(C(=O)c2cc3n(n2)CCCN(C(=O)OCc2cc(Cl)cc(Cl)c2)C3)C1 (centres unmarked) [Example 88, 1-(5-(((3,5-dichlorobenzyl)oxy)carbonyl)-5,6,7,8-tetrahydro-4H-pyrazolo[1,5-a][1,4]diazepine-2-carbonyl)piperidine-3-carboxylic acid] |
| ≤ 500 | CCOC(=O)c1cc2n(c1)CCCN(C(=O)OCc1cc(Cl)cc(Cl)c1)C2 [Example 99, 2-(3,5-Dichlorobenzyl) 8-ethyl 4,5-dihydro-1H-pyrrolo[1,2-a][1,4]diazepine-2,8(3H)-dicarboxylate] |
| ≤ 100 | O=C(O)c1cc2n(c1)CCCN(C(=O)OCc1cc(Cl)cc(Cl)c1)C2 [Example 100, 2-(((3,5-Dichlorobenzyl)oxy)carbonyl)-2,3,4,5-tetrahydro-1H-pyrrolo[1,2-a][1,4]diazepine-8-carboxylic acid] |
| ≤ 100 | O=C(OCc1cc(Cl)cc(Cl)c1)N1CCCn2nc(C(=O)N3CCC(O)CC3)cc2C1 [Example 101, 3,5-Dichlorobenzyl 2-(4-hydroxypiperidine-1-carbonyl)-7,8-dihydro-4H-pyrazolo[1,5-a][1,4]diazepine-5(6H)-carboxylate] |
| ≤ 100 | NC(=O)c1cc2n(n1)CCCN(C(=O)OCc1cc(Cl)cc(Cl)c1)C2 [Example 102, 3,5-Dichlorobenzyl 2-carbamoyl-7,8-dihydro-4H-pyrazolo[1,5-a][1,4]diazepine-5(6H)-carboxylate] |

| SMILES | IC50 [nM] |
| --- | --- |
| O=C(O)C1CC2CCCC(C1)N2C(=O)c1cc2n(n1)CCCN(C(=O)OCc1ccc(Cl)cc1)C2 (centres unmarked) [Example 59, 9-(5-((4-Chlorobenzyloxy)carbonyl)-5,6,7,8-tetrahydro-4H-pyrazolo[1,5-a][1,4]diazepine-2-carbonyl)-9-aza-bicyclo[3.3.1]nonane-3-carboxylic acid] | ≤ 100 |
| O=C(O)C1CC2CCCC(C1)N2C(=O)c1cc2n(n1)CCCN(C(=O)OCc1ccc(C(F)(F)F)cc1)C2 (centres unmarked) [Example 60] | ≤ 100 |
| O=C(O)C1CC2CCCC(C1)N2C(=O)c1cc2n(n1)CCCN(C(=O)OCc1cc(F)cc(Cl)c1)C2 (centres unmarked) [Example 61, 9-(5-((3-Chloro-5-fluorobenzyloxy)carbonyl)-5,6,7,8-tetrahydro-4H-pyrazolo[1,5-a][1,4]diazepine-2-carbonyl)-9-aza-bicyclo[3.3.1]nonane-3-carboxylic acid] | ≤ 100 |
| O=C(O)C1CC2CCCC(C1)N2C(=O)c1cc2n(n1)CCCN(C(=O)OCc1cc(F)cc(F)c1)C2 (centres unmarked) [Example 62, 9-(5-((3,5-Trifluorobenzyloxy)carbonyl)-5,6,7,8-tetrahydro-4H-pyrazolo[1,5-a][1,4]diazepine-2-carbonyl)-9-aza-bicyclo[3.3.1]nonane-3-carboxylic acid] | ≤ 100 |
| O=C(O)C1CC2CCCC(C1)N2C(=O)c1cc2n(n1)CCCN(C(=O)OCc1cc(C(F)(F)F)cc(C(F)(F)F)c1)C2 (centres unmarked) [Example 63, 9-(5-((3,5-Bis(trifluoromethyl)benzyloxy)carbonyl)-5,6,7,8-tetrahydro-4H-pyrazolo[1,5-a][1,4]diazepine-2-carbonyl)-9-aza-bicyclo[3.3.1]nonane-3-carboxylic acid] | ≤ 100 |
| O=C(O)C1CC2CCCC(C1)N2C(=O)c1cc2n(n1)CCCN(C(=O)CCc1cc(Cl)cc(Cl)c1)C2 (centres unmarked) [Example 90, 9-(5-(3-(3,5-Dichlorophenyl)propanoyl)-5,6,7,8-tetrahydro-4H-pyrazolo[1,5-a][1,4]diazepine-2-carbonyl)-9-azabicyclo[3.3.1]nonane-3-carboxylic acid] | ≤ 100 |
| O=C(O)C1CC2CCCC(C1)N2C(=O)c1cc2n(n1)CCN(C(=O)CCc1cc(Cl)cc(Cl)c1)C2 (centres unmarked) [Example 92, 9-(5-(3-(3,5-Dichlorophenyl)propanoyl)-4,5,6,7-tetrahydropyrazolo[1,5-a]pyrazine-2-carbonyl)-9-azabicyclo[3.3.1]nonane-3-carboxylic acid] | ≤ 100 |
| O=C(O)C1CC2CCC(C1)N2C(=O)c1cc2n(n1)CCN(C(=O)CCc1cc(Cl)cc(Cl)c1)C2 (centres unmarked) [Example 93, 8-(5-(3-(3,5-Dichlorophenyl)propanoyl)-4,5,6,7-tetrahydropyrazolo[1,5-a]pyrazine-2-carbonyl)-8-azabicyclo[3.2.1]octane-3-carboxylic acid] | ≤ 500 |
| O=C(CCc1cc(Cl)cc(Cl)c1)N1CCn2nc(C(=O)N3C4CCCC3CCC4)cc2C1 [Example 94, 1-(2-(9-Azabicyclo[3.3.1]nonane-9-carbonyl)-6,7-dihydropyrazolo[1,5-a]pyrazin-5(4H)-yl)-3-(3,5-dichlorophenyl)propan-1-one] | ≤ 100 |
| COC(=O)C1CC2CCCC(C1)N2C(=O)c1cc2n(n1)CCCN(C(=O)OCc1cc(Cl)cc(Cl)c1)C2 (centres unmarked) [Example 95, 3,5-Dichlorobenzyl 2-(3-(methoxycarbonyl)-9-azabicyclo[3.3.1]nonane-9-carbonyl)-7,8-dihydro-4H-pyrazolo[1,5-a][1,4]diazepine-5(6H)-carboxylate] | ≤ 100 |
| O=C(O)C1CC2CCC(C1)N2C(=O)c1cc2n(n1)CCCN(C(=O)OCc1cc(Cl)cc(Cl)c1)C2 (centres unmarked) [Example 97, 8-(5-(((3,5-Dichlorobenzyl)oxy)carbonyl)-5,6,7,8-tetrahydro-4H-pyrazolo[1,5-a][1,4]diazepine-2-carbonyl)-8-azabicyclo[3.2.1]octane-3-carboxylic acid] | ≤ 100 |
